Laboratory results taken from US9163030B2 (priority 2012, dated 2015).
Like-named read-outs stand apart in the source and are kept apart here.

Experiments:
[1] = biological target: T1, CHO cells co-expressing MOR and DOR (dimer cells) (UniProt P32300+P35372); format: cell-based, human μ / mouse δ
T1 construct: cMyc (N); expressed in transfected cells; host or cells: CHO (cMyc-mδ-HμCHO cells)

[2] = tested on: mice; test: 55° C. warm-water tail-withdrawal test; format: in vivo, mouse; conditions: for Antinociceptive A50 Values / antinociceptive effect: icv; for Antinociceptive A50 Values: calculated at time of peak effect; for antinociceptive effect: in words; for effect of naloxone pretreatment on antinociceptive effect: naloxone 10 mg/kg ip, -10 min, icv test compound
[3] = biological target: T2, MOR (Homo sapiens, UniProt P35372); test: [35S]GTP-γ-S binding assay, hMOR-CHO cells; format: biochemical; conditions: for Emax: normalized to stimulation by DAMGO, read-out: agonist activity MOR Emax
T2 construct: expressed in transfected cells; host or cells: CHO (hMOR-CHO)

[4] = biological target: T3, DOR (Homo sapiens, UniProt P41143); test: Opioid binding assay, displacement of [3H]DADLE, hDOR-CHO cell membranes
T3 construct: expressed in transfected cells; host or cells: CHO (hDOR-CHO)

[5] = biological target: T4, DOR (Mus musculus, UniProt P32300); test: [35S]GTP-γ-S binding assay, NG108-15 cells; format: biochemical; conditions: for functional activity profile at DOR: in words
T4 construct: endogenous in cells; host or cells: NG108-15 neuroblastoma x glioma cells

[6] = biological target: T5, KOR (Homo sapiens, UniProt P41145); test: biochemical; format: binding
T5 construct: expressed in transfected cells; host or cells: CHO (hKOR-CHO)

[7] = biological target: T1, CHO cells co-expressing MOR and DOR (dimer cells); test: cell-based; format: cell-based, human μ / mouse δ; parameters: Emax: dose or concentration left out as unconfirmed; conditions: for Emax: CHO, read-out: decrease of the Emax value for DAMGO-mediated inhibition of forskolin-stimulated cAMP
[8] = biological target: T2, MOR; test: Opioid binding assay, displacement of [3H]DAMGO, hMOR-CHO cell membranes
[9] = biological target: T5, KOR; test: [35S]GTP-γ-S binding assay, hKOR-CHO cells; format: biochemical
[10] = tested on: mice; test: Tolerance regimen, repeated icv injection, warm-water tail-withdrawal; conditions: repeated injection paradigm
[11] = biological target: KOR; conditions: brain tissue membranes, included for comparison; read-out: Ki ± SEM KOR; cited from earlier work
[12] = biological target: MOR; conditions: brain tissue membranes, included for comparison; read-out: Ki ± SEM MOR; cited from earlier work
[13] = biological target: DOR; conditions: brain tissue membranes, included for comparison; read-out: Ki ± SEM DOR; cited from earlier work
[14] = stimulation of [35S]GTP-γ-S binding, no stim = no stimulation

T4 sequence (P32300 whole entry): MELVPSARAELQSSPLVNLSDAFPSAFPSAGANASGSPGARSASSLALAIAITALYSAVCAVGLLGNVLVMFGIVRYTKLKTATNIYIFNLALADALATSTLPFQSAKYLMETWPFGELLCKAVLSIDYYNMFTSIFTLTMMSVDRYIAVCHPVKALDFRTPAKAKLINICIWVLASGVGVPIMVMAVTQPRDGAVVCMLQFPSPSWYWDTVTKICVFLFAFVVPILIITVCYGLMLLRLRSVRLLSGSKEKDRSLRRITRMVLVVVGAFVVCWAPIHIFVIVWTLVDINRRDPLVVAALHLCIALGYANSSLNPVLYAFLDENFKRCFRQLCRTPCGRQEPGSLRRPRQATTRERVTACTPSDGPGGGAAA
T1 sequence (P35372 whole entry): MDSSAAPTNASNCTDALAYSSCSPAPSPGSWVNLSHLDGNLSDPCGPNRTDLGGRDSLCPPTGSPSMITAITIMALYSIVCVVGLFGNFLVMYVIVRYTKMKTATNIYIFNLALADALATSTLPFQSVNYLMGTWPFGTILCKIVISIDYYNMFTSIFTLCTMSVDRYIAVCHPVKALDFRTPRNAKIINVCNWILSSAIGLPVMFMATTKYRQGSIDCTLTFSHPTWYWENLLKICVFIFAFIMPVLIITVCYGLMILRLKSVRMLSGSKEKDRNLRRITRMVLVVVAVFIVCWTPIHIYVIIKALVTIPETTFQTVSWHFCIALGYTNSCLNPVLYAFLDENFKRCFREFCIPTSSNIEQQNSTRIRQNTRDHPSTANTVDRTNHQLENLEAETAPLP
T1 sequence (P32300 whole entry): as the sequence (P32300 whole entry) above
T2 sequence (P35372 whole entry): as the sequence (P35372 whole entry) above
T5 sequence (P41145 whole entry): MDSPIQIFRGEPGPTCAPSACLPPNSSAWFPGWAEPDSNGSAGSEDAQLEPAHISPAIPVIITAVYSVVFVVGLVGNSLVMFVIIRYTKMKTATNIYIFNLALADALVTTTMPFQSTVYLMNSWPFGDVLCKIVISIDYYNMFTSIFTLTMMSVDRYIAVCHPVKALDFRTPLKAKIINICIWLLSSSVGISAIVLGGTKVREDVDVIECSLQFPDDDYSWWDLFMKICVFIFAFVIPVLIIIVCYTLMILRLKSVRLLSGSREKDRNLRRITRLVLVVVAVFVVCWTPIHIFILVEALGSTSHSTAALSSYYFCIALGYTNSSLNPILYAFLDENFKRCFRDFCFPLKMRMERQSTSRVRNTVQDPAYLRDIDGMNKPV
T3 sequence (P41143 whole entry): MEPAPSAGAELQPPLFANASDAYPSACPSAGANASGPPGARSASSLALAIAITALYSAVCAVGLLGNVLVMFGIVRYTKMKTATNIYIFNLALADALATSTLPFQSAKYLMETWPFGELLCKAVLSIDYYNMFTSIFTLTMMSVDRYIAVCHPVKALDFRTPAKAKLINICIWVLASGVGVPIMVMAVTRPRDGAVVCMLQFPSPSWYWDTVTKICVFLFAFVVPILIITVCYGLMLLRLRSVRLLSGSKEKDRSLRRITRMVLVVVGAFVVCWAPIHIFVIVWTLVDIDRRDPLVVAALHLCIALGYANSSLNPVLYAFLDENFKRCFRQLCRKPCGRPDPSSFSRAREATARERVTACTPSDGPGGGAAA

CN1CCC23c4c5ccc(O)c4OC2c2ncc(-c4ccc(Cl)cc4)cc2CC3(OCCCc2ccccc2)C1C5 (stereo not drawn) [Compound 17h, 5′-(4-Chlorophenyl)-6,7-didehydro-4,5α-epoxy-3-hydroxy-17-methyl-14-(3-phenylpropoxy)pyrido[2′,3′:6,7]morphinan]
cAMP superactivation (forskolin-stimulated cAMP accumulation after chronic treatment) [1]: effects similar to that of morphine
naloxone-induced cAMP overshoot [1]: effects similar to that of morphine
Antinociceptive A50 Values [2]: 0.23 nmol
antinociceptive effect [2]: full antinociceptive effects
effect of naloxone pretreatment on antinociceptive effect [2]: blocked by naloxone pretreatment
EC50 [3]: 2.15 nM
Emax [3]: 125 ± 2%
Ki [4]: 1.04 ± 0.08 nM
functional activity profile at DOR [5]: weak to potent partial agonist activity at DOR
Emax ([5]; read-out: agonist activity DOR Emax): 85%
selectivity ratio KOR/DOR [6]: 1.5
Ki ([6]; read-out: Ki ± SEM KOR): 1.53 ± 0.1 nM
increase in the EC50 value for DAMGO-mediated inhibition of forskolin-stimulated cAMP accumulation (tolerance) [7]: ~7 fold
Emax [7]: 20%
Ki [8]: 0.54 ± 0.04 nM
selectivity ratio MOR/DOR ([8]; ratio of Ki values, CHO membranes): 0.52
agonist activity KOR EC50 [9, 14]: no stim
toxicity on repeated administration [10]: undue toxicity

CN1CCC23c4c5ccc(O)c4OC2c2ncc(-c4ccc(Cl)cc4)cc2CC3(O)C1C5 (stereo not shown) [Compound 9]
Ki [11]: 468 ± 17 nM
Ki [12]: 230 ± 10 nM
Ki [13]: 3.9 ± 0.2 nM

Oc1ccc2c3c1OC1c4ncc(-c5ccc(Cl)cc5)cc4CC4(OCCCc5ccccc5)C(C2)N(CC2CC2)CCC314 (stereo not drawn) [Compound 17d, 5′-(4-Chlorophenyl)-17-(cyclopropylmethyl)-6,7-didehydro-4,5α-epoxy-3-hydroxy-14-(3-phenylpropoxy)pyrido[2′,3′:6,7]morphinan]
cAMP superactivation (forskolin-stimulated cAMP accumulation after chronic treatment) ([1]; 20 h treatment, washed, forskolin/IBMX 100 μM/500 μM): did not
naloxone-induced cAMP overshoot ([1]; 20 h treatment, washed, forskolin/IBMX plus 10 μM naloxone): did not
Antinociceptive A50 Values [2]: 0.35 nmol
antinociceptive effect [2]: full antinociceptive effects
effect of naloxone pretreatment on antinociceptive effect [2]: blocked by naloxone pretreatment
functional activity profile at MOR ([3]; in words): agonist profile at MOR
Emax [3]: 72%
functional activity profile at DOR [5]: antagonists at DOR
antagonist activity DOR Ke ([5]; shift in EC50 of standard agonist): 0.091 nM
agonist activity DOR EC50 [5, 14]: no stim
increase in the EC50 value for DAMGO-mediated inhibition of forskolin-stimulated cAMP accumulation (tolerance) [7]: did not produce either tolerance
Emax [7]: 40%
functional activity profile at KOR ([9]; in words): devoid of agonist activity at KOR
